# Experimental data: PMC9229843, “Cancer-Related Somatic Mutations in Transmembrane Helices Alter Adenosine A1 Receptor Pharmacology” (Molecules, 2022)
# Residue numbers refer to the chain shown, from its start.
# Tests used:
# hA1AR G279S^7.44 = molecular target: T1, hA1AR G279S^7.44 (Homo sapiens, UniProt P30542, G279S); assay: [3H]DPCPX radioligand displacement assay, CHO membranes; assay type: binding; set-up: HA; expressed in transfected cells; host or cells: CHO cells, transient PEI transfection; membranes prepared; details: fraction of high-affinity state; two-site model
# T1 sequence (P30542 1-326 G279S): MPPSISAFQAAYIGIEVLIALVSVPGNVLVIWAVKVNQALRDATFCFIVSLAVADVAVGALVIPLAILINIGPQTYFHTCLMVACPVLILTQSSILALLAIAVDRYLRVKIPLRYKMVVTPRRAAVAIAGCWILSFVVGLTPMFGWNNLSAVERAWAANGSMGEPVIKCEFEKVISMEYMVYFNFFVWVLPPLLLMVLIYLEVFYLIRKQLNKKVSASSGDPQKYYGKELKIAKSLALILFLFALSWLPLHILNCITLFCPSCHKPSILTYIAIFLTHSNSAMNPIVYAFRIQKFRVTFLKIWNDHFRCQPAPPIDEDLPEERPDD
# Procedure: (§1) Transient transfection of CHO cells with wild type or mutated hA1AR plasmid constructs was performed using a polyethylenimine (PEI) method. Cells were seeded in 10-cm culture dishes to achieve 50–60% confluency 24 h prior to transfection. On the day of transfection, cells were transfected with a PEI: DNA ratio of 3:1 and a plasmid DNA amount of 10 μg/dish. Moreover, 24 h post-transfection, the medium was refreshed, and 48 h after transfection, cells were collected and membranes were prepared as previously described. Membranes were aliquoted in 250 or 100 μL and stored at −80 °C. Membrane protein concentrations were determined using the BCA method.
# The displacement assays were performed as described previously. […] After the addition of 25 µL per well of the Microscint scintillation cocktail (PerkinElmer, Groningen, The Netherlands), the filter-bound radioactivity was measured by scintillation spectrometry in a Microbeta2® 2450 microplate counter (PerkinElmer).
# All experimental data were analyzed by GraphPad Prism 7.0 or 8.0 (GraphPad Software Inc., San Diego, CA, USA). Data from yeast liquid growth and [^35S]GTPγS binding assays were analyzed by non-linear regression using “log (agonist) vs. response (three parameters)” or “log (inhibitor) vs. response (three parameters)” to obtain potency (EC50), inhibitory potency (IC50), and efficacy (Emax or Imax) values. […]
# hA1AR W188C^5.46 = molecular target: T2, hA1AR W188C^5.46 (Homo sapiens, UniProt P30542, W188C); assay: as above; assay type: binding; set-up: expressed in transfected cells; host or cells: CHO cells, transient; membranes; details: fraction of high-affinity state; two-site model
# T2 sequence (P30542 1-326 W188C): T1 sequence (P30542 1-326 G279S) with W188C, S279G
# Procedure: as §1
# The displacement assays were performed as described previously. […] Note, the number of cell membranes (10–25 µg) was adjusted to obtain (approximately) a 1500 DPM assay window for each mutant. […] Incubations were terminated after 1 h at 25 °C by rapid vacuum filtration through GF/B filter plates (PerkinElmer, Groningen, Netherlands) using a Perkin Elmer Filtermate-harvester. Afterward, filter plates were washed ten times with ice-cold buffer (50 mM Tris-HCl, pH 7.4) and dried at 55 °C for 30 min. After the addition of 25 µL per well of the Microscint scintillation cocktail (PerkinElmer, Groningen, The Netherlands), the filter-bound radioactivity was measured by scintillation spectrometry in a Microbeta2® 2450 microplate counter (PerkinElmer).
# All experimental data were analyzed by GraphPad Prism 7.0 or 8.0 (GraphPad Software Inc., San Diego, CA, USA). Data from yeast liquid growth and [^35S]GTPγS binding assays were analyzed by non-linear regression using “log (agonist) vs. response (three parameters)” or “log (inhibitor) vs. response (three parameters)” to obtain potency (EC50), inhibitory potency (IC50), and efficacy (Emax or Imax) values. The radioligand displacement curves were obtained from a statistically preferred one-site or two-site binding model. pKi values were calculated from pIC50 values using the Cheng–Prusoff equation, where KD values were obtained from the homologous competition assays from this study and calculated by non-linear regression using “one site–homologous” [62].
smiles,measurement,setting,value
"OC[C@H]1O[C@@H](n2cnc3c(NC4CCCC4)ncnc32)[C@H](O)[C@@H]1O [CPA, N^6-cyclopentyladenosine]",Fraction (High),hA1AR G279S^7.44,0.17 ± 0.04
same,Fraction (High),hA1AR W188C^5.46,0.29 ± 0.01
